Measured values taken from PubChem BioAssay AID330 (DTP/NCI, 2004).
Values joined by “and” are separate entries in the source; they are usually repeats but may differ in a detail not shown here. Identical values can stand only once. Inconclusive results and toxic doses are left out. Rule for the calls: active = survival T/C of 150% or more; inactive = T/C below 125% in these data.

Test system: P388 leukemia ip, CD2F1 mice, survival T/C
Assay: NCI In Vivo Anticancer Drug Screen. Data for tumor model P388 Leukemia (intraperitoneal) in CD2F1 (CDF1) mice
Settings: endpoint: median survival time, higher = longer survival
Outline: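 Mice carrying the transplanted tumor received test compound or vehicle. Survival was recorded in each group, and the value is the treated-group measurement divided by that of the vehicle-treated control group.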

[1] = dose: 50.0 mg/kg/injection, schedule: Q01DX009 (ip), vehicle: saline with Tween-80
[2] = dose: 100.0 mg/kg/injection, schedule: Q01DX009 (ip), vehicle: saline with Tween-80
[3] = dose: 200.0 mg/kg/injection, schedule: Q01DX009 (ip), vehicle: saline with Tween-80
[4] = dose: 50.0 mg/kg/injection, schedule: Q01DX005 (ip), vehicle: saline with Tween-80
[5] = dose: 100.0 mg/kg/injection, schedule: Q01DX005 (ip), vehicle: saline with Tween-80
[6] = dose: 200.0 mg/kg/injection, schedule: Q01DX005 (ip), vehicle: saline with Tween-80
[7] = dose: 60.0 mg/kg/injection, schedule: Q01DX005 (ip), vehicle: saline with Tween-80
[8] = dose: 120.0 mg/kg/injection, schedule: Q01DX005 (ip), vehicle: saline with Tween-80
[9] = dose: 240.0 mg/kg/injection, schedule: Q01DX005 (ip), vehicle: saline with Tween-80
[10] = dose: 50.0 mg/kg/injection, schedule: Q01DX005 (ip), vehicle: Klucel (hydroxypropylcellulose) (HPC)
[11] = dose: 100.0 mg/kg/injection, schedule: Q01DX005 (ip), vehicle: Klucel (hydroxypropylcellulose) (HPC)
[12] = dose: 200.0 mg/kg/injection, schedule: Q01DX005 (ip), vehicle: Klucel (hydroxypropylcellulose) (HPC)
[13] = dose: 100.0 mg/kg/injection, schedule: Q04DX003 (ip), vehicle: saline with Tween-80
[14] = dose: 200.0 mg/kg/injection, schedule: Q04DX003 (ip), vehicle: saline with Tween-80

Measured: T/C

FC(F)Oc1ccccc1
inactive: dose: 50.0 mg/kg/injection, schedule: Q01DX009 (ip), vehicle: acetone 105 % of control | [1] 100 % of control and 101 % of control | dose: 100.0 mg/kg/injection, schedule: Q01DX009 (ip), vehicle: acetone 113 % of control | [2] 100 % of control and 110 % of control | dose: 200.0 mg/kg/injection, schedule: Q01DX009 (ip), vehicle: acetone 110 % of control | [3] 114 % of control

O=C1C(CCl)=C(c2ccccc2)S(=O)(=O)c2ccccc21
inactive: [4] 109 % of control | [5] 114 % of control | [6] 114 % of control

O=Nc1c(NO)n(-c2ccccc2)c(=S)n1-c1ccccc1
inactive: [4] 95 % of control | [5] 109 % of control | [6] 104 % of control

Fc1cccc(Cl)c1C(Nc1ncccn1)Nc1ncccn1
inactive: dose: 60.0 mg/kg/injection, schedule: Q01DX005 (ip), vehicle: Klucel (hydroxypropylcellulose) (HPC) 100 % of control | dose: 120.0 mg/kg/injection, schedule: Q01DX005 (ip), vehicle: Klucel (hydroxypropylcellulose) (HPC) 94 % of control | dose: 240.0 mg/kg/injection, schedule: Q01DX005 (ip), vehicle: Klucel (hydroxypropylcellulose) (HPC) 88 % of control

O=C1c2ccccc2-c2cc(Br)c(N=Cc3c[nH]c4ccccc34)cc21
inactive: [4] 105 % of control | [5] 95 % of control | [6] 89 % of control

CC1Cc2nc3ccccc3nc2C1
inactive: [7] 99 % of control | [8] 99 % of control | [9] 104 % of control

CCN(CC)C1=Nc2ccccc2N(c2ccccc2)C(=S)C1
inactive: [10] 106 % of control | [11] 103 % of control | [12] 100 % of control

C/C=C1\CN2C3CC1C1(CN4c5c(OC)cc(OC)c(OC)c5C56CC7C(COC45O1)C1CC6N7C/C1=C/COC)C2CC31C(=O)Nc2c(OC)cc(OC)c(OC)c21 (stereo not given)
inactive: dose: 1.5 mg/kg/injection, schedule: Q01DX005 (ip), vehicle: Klucel (hydroxypropylcellulose) (HPC) 97 % of control | dose: 3.0 mg/kg/injection, schedule: Q01DX005 (ip), vehicle: Klucel (hydroxypropylcellulose) (HPC) 97 % of control | dose: 6.0 mg/kg/injection, schedule: Q01DX005 (ip), vehicle: Klucel (hydroxypropylcellulose) (HPC) 108 % of control | dose: 12.0 mg/kg/injection, schedule: Q01DX005 (ip), vehicle: Klucel (hydroxypropylcellulose) (HPC) 96 % of control

CCCCCCC([Se]C)C(O)(CCC)CCC (stereo not given)
inactive: dose: 25.0 mg/kg/injection, schedule: Q04DX003 (ip), vehicle: saline with Tween-80 100 % of control | dose: 50.0 mg/kg/injection, schedule: Q04DX003 (ip), vehicle: saline with Tween-80 100 % of control | [13] 91 % of control

CC(=O)NCc1cc(C)c(CCl)cc1CCl
inactive: dose: 3.13 mg/kg/injection, schedule: Q01DX009 (ip), vehicle: distilled water + Tween-80 103 % of control | dose: 6.25 mg/kg/injection, schedule: Q01DX009 (ip), vehicle: distilled water + Tween-80 114 % of control and 117 % of control | dose: 12.5 mg/kg/injection, schedule: Q01DX009 (ip), vehicle: distilled water + Tween-80 122 % of control and 123 % of control | dose: 25.0 mg/kg/injection, schedule: Q01DX009 (ip), vehicle: distilled water + Tween-80 116 % of control

c1ccc2c(CCN3CCCCC3)c[nH]c2c1
inactive: dose: 15.0 mg/kg/injection, schedule: Q01DX005 (ip), vehicle: saline with Tween-80 92 % of control | dose: 30.0 mg/kg/injection, schedule: Q01DX005 (ip), vehicle: saline with Tween-80 88 % of control | [7] 101 % of control and 87 % of control

O=c1[nH]c(-c2cccc(-c3nnc(-c4ccccc4Cl)c(=O)[nH]3)c2)nnc1-c1ccccc1Cl
inactive: dose: 100.0 mg/kg/injection, schedule: Q04DX002 (ip), vehicle: Klucel (hydroxypropylcellulose) (HPC) 100 % of control | dose: 200.0 mg/kg/injection, schedule: Q04DX002 (ip), vehicle: Klucel (hydroxypropylcellulose) (HPC) 100 % of control | dose: 400.0 mg/kg/injection, schedule: Q04DX002 (ip), vehicle: Klucel (hydroxypropylcellulose) (HPC) 96 % of control

COc1ccc(C(O)Cc2ccccc2)cc1 (stereo not given)
inactive: dose: 31.25 mg/kg/injection, schedule: Q01DX009 (ip), vehicle: saline + Tween-80 + alcohol 93 % of control | dose: 62.5 mg/kg/injection, schedule: Q01DX009 (ip), vehicle: saline + Tween-80 + alcohol 91 % of control | dose: 125.0 mg/kg/injection, schedule: Q01DX009 (ip), vehicle: saline + Tween-80 + alcohol 91 % of control | dose: 250.0 mg/kg/injection, schedule: Q01DX009 (ip), vehicle: saline + Tween-80 + alcohol 89 % of control

Cc1c(C(N)=O)no[n+]1[O-]
inactive: dose: 30.0 mg/kg/injection, schedule: Q01DX005 (ip), vehicle: saline 100 % of control | dose: 60.0 mg/kg/injection, schedule: Q01DX005 (ip), vehicle: saline 99 % of control and 100 % of control | dose: 120.0 mg/kg/injection, schedule: Q01DX005 (ip), vehicle: saline 99 % of control and 100 % of control

CC(C)COC(=O)NC(C(=O)N(C(=O)NC1CCCCC1)C1CCCCC1)C(C)C (stereo not given)
inactive: [10] 100 % of control | [11] 95 % of control | [12] 95 % of control

O=C(c1ccc(-c2ccccc2)cc1)C(Br)C(Br)c1ccccc1 (stereo not given)
inactive: dose: 25.0 mg/kg/injection, schedule: Q01DX009 (ip), vehicle: other 90 % of control | dose: 100.0 mg/kg/injection, schedule: Q01DX009 (ip), vehicle: other 90 % of control | dose: 200.0 mg/kg/injection, schedule: Q01DX009 (ip), vehicle: other 101 % of control | dose: 400.0 mg/kg/injection, schedule: Q01DX009 (ip), vehicle: other 116 % of control

COc1cc2c(cc1OC)C(=O)C(Br)CC2 (stereo not given)
inactive: [1] 104 % of control | [2] 113 % of control

CCCCN=Cc1ccccc1
inactive: [13] 100 % of control | [14] 100 % of control

Brc1ccc(C(Nc2nncs2)Nc2nncs2)cc1
inactive: [7] 111 % of control | [8] 115 % of control | [9] 107 % of control

O=CNc1ccc(O)cc1
inactive: [2] 100 % of control | [3] 109 % of control | dose: 400.0 mg/kg/injection, schedule: Q01DX009 (ip), vehicle: saline with Tween-80 118 % of control

CC(C)(C#N)NCCCCCCNC(C)(C)C#N
inactive: [10] 96 % of control | [11] 93 % of control | [12] 100 % of control

Cc1ccc(Cl)cc1NS(=O)(=O)c1ccc2ccccc2c1
inactive: [13] 100 % of control | [14] 109 % of control | dose: 400.0 mg/kg/injection, schedule: Q04DX003 (ip), vehicle: saline with Tween-80 104 % of control

COc1cccc2c1C(=O)c1c(O)c3c(c(O)c1C2=O)C[C@@](O)(C(=O)CSc1ccccc1)C[C@@H]3OC1CC(N)C(O)C(C)O1 (stereo not given in full)
inactive: dose: 0.78 mg/kg/injection, schedule: Q01DX009 (ip), vehicle: water 122 % of control | dose: 12.5 mg/kg/injection, schedule: Q01DX009 (ip), vehicle: water 99 % of control and 91 % of control

C/C(C(=O)NC1CC1)=C(\C)c1ccc(Br)cc1
inactive: dose: 50.0 mg/kg/injection, schedule: Q04DX003 (ip), vehicle: Klucel (hydroxypropylcellulose) (HPC) 99 % of control | dose: 100.0 mg/kg/injection, schedule: Q04DX003 (ip), vehicle: Klucel (hydroxypropylcellulose) (HPC) 99 % of control | dose: 200.0 mg/kg/injection, schedule: Q04DX003 (ip), vehicle: Klucel (hydroxypropylcellulose) (HPC) 98 % of control

CCCCCCCCCCCCNc1ccc(Cl)cc1
inactive: dose: 50.0 mg/kg/injection, schedule: Q01DX009 (ip), vehicle: Klucel (hydroxypropylcellulose) (HPC) 117 % of control and 123 % of control | dose: 100.0 mg/kg/injection, schedule: Q01DX009 (ip), vehicle: Klucel (hydroxypropylcellulose) (HPC) 103 % of control and 113 % of control | dose: 200.0 mg/kg/injection, schedule: Q01DX009 (ip), vehicle: Klucel (hydroxypropylcellulose) (HPC) 117 % of control

COc1cc(/C=N/NC(=O)c2ccc(NC(C)=O)cc2)ccc1O
inactive: [10] 90 % of control | [11] 90 % of control | [12] 90 % of control

C=CCCCCCCCCCSC(=N)N
inactive: dose: 6.25 mg/kg/injection, schedule: Q01DX009 (ip), vehicle: Klucel (hydroxypropylcellulose) (HPC) 98 % of control | dose: 12.5 mg/kg/injection, schedule: Q01DX009 (ip), vehicle: Klucel (hydroxypropylcellulose) (HPC) 93 % of control | dose: 25.0 mg/kg/injection, schedule: Q01DX009 (ip), vehicle: Klucel (hydroxypropylcellulose) (HPC) 99 % of control
